{"source": "paper PMC8822125", "about": "“RW-BP100-4D, a Promising Antimicrobial Candidate With Broad-Spectrum Bactericidal Activity” (Frontiers in Microbiology, 2022)", "key": {"various microorganisms": {"tested_on": "various microorganisms", "assay": "MIC/MBC, summary statements over several strains", "assay_type": "cell-based"}, "[1]": {"tested_on": "Staphylococcus aureus ATCC29213", "assay": "MIC/MBC, broth microdilution", "assay_type": "cell-based"}, "C. albicans ATCC10231": {"tested_on": "C. albicans ATCC10231", "conditions": "1 h, mean of three", "description": "To evaluate the thermal and pH stability of RW-BP100-4D, 100 μL of the peptide (100 μg/mL, in PBS buffer) was incubated under different temperatures (40, 50, 60, 70, 80, 90, and 100°C, pH 7) or different pHs (2, 3, 4, 5, 6, 7, 8 and 9, 37°C) for 1 h ([Song et al., 2020]). After incubation, the pH of the peptide solutions was adjusted to 7.0 using NaOH or HCl. For protease and serum stability test, 100 μL of RW-BP100-4D (100 μg/mL) was incubated with proteinase K (1 mg/mL), trypsin (1 mg/mL), papain (1 mg/mL), or sterile calf serum at 37°C for 1 h, respectively ([Song et al., 2020]). After the treatments, the proteases and calf serum were inactivated by heating at 80°C for 30 min. The remnant activity of the treated RW-BP100-4D was evaluated by determining the MICs against E. coli ATCC25922, S. aureus ATCC29213, and C. albicans ATCC10231 using broth microdilution method. RW-BP100-4D without any treatment was used as the control and each test was conducted with three independent repeats. Moreover, degradation rate (%) was estimated as the percentage of degraded peptide calculated from the decrease of the high-performance liquid chromatography (HPLC) peak area of the native peptide. HPLC analysis was performed using the Agilent™ 1100 Series equipped with an Agilent analysis column (ZORBAX RX-C8, 2.1 mm × 150 mm, 5 μm) and an UV detector at 220 nm. Mobile phase was composed of A (H2O) and B (acetonitrile), which contained 0.065% trifluoroacetic (v/v) and 0.05% trifluoroacetic (v/v), respectively."}, "RAW264.7 cells": {"tested_on": "RAW264.7 cells", "conditions": "peptide 150 μg/mL, 24 h, WST-1, mean ± SD, three repeats"}, "Escherichia coli XG-E1": {"tested_on": "Escherichia coli XG-E1", "conditions": "Escherichia coli XG-E1 (blaNDM-5, mcr-1); mean of three repeated experiments", "description": "(§1) To compare the antibacterial activity of RW-BP100 and its serial derivatives, the MIC against S. aureus ATCC29213 and E. coli ATCC25922 were determined using broth microdilution method according to the guidelines of Clinical and Laboratory Standards Institute (CLSI) M100-S25 ([CLSI, 2015]). Briefly, peptides were dissolved in sterilized water and twofold diluted in Mueller-Hinton (MH) broth (Beijing Land Bridge Technology) at the concentration ranges of 0.098–100 μg/mL. Then the peptides were mixed with an equal volume (100 μL) of bacterial suspensions of 10^6 CFU/mL in a sterilized 96-well microtiter plate. […] To further evaluate the antimicrobial spectrum of RW-BP100-4D, MICs were determined against a more variety of Gram-positive and Gram-negative bacterial species, and the fungal strains (according to CLSI M38 guideline). […] MIC and MBC testing were performed with three independent repeats."}, "[2]": {"tested_on": "Staphylococcus epidermidis ATCC29887", "conditions": "mean of three repeated experiments", "description": "as §1"}, "Enterococcus faecalis 32": {"tested_on": "Enterococcus faecalis 32", "conditions": "Enterococcus faecalis 32 (optrA); mean of three repeated experiments", "description": "as §1"}, "[3]": {"tested_on": "Listeria monocytogenes LM08", "conditions": "Listeria monocytogenes LM08 (tetM); mean of three repeated experiments", "description": "as §1"}, "[4]": {"tested_on": "Enterococcus faecalis JH2-2", "conditions": "mean of three repeated experiments", "description": "as §1"}, "[5]": {"tested_on": "Pseudomonas fluorescens AC04", "conditions": "mean of three repeated experiments", "description": "as §1"}, "[6]": {"tested_on": "Streptococcus agalactiae ATCC13813", "conditions": "mean of three repeated experiments", "description": "as §1"}, "Escherichia coli 47EC": {"tested_on": "Escherichia coli 47EC", "conditions": "Escherichia coli 47EC (tet(X4)); mean of three repeated experiments"}, "[7]": {"tested_on": "Candida albicans ATCC10231", "assay": "MIC/MBC, broth microdilution (CLSI M38)", "assay_type": "cell-based"}, "trypsin": {"tested_on": "trypsin", "assay": "in vitro"}, "[8]": {"tested_on": "Escherichia coli ATCC25922"}, "[9]": {"tested_on": "E. coli ATCC25922, S. aureus ATCC29213, and C. albicans ATCC10231", "assay": "Stress stability, fold change of MIC against the three reference strains", "assay_type": "cell-based", "conditions": "proteinase K 1 mg/mL, 37°C, 1 h"}, "[10]": {"conditions": "100 μg/mL in PBS, 1 h"}, "Fusarium oxysporum LD21": {"tested_on": "Fusarium oxysporum LD21", "assay": "MIC/MBC, broth microdilution (CLSI M38)", "assay_type": "cell-based"}, "in vitro": {"assay": "in vitro", "conditions": "calf serum"}, "[11]": {"tested_on": "S. aureus ATCC29213 biofilm formation", "conditions": "peptide 6.25 μg/mL, 24 h, 37°C, crystal violet OD590"}, "[12]": {"conditions": "Table 1, broth microdilution CLSI M100-S25, MH broth, 37°C, 18 h, three independent repeats"}, "[13]": {"conditions": "CLSI M38, mean of three repeated experiments"}, "[14]": {"conditions": "mean of three repeated experiments"}}, "note": "Where “and” joins values, the source holds several entries; their conditions need not be identical. Identical values can stand only once. Where a SMILES comes first, the peptide text is derived from it.", "data": [{"smiles": "CC[C@H](C)[C@H](NC(=O)[C@H](CCCNC(=N)N)NC(=O)[C@H](CCCNC(=N)N)NC(=O)[C@@H](Cc1ccccc1)NC(=O)[C@H](CC(C)C)NC(=O)[C@H](CCCNC(=N)N)NC(=O)[C@@H](N)CCCNC(=N)N)C(=O)N[C@@H](CC(C)C)C(=O)N[C@@H](CCCNC(=N)N)C(=O)N[C@@H](Cc1c[nH]c2ccccc12)C(=O)N[C@@H](CC(C)C)C(N)=O", "note": "[RW-BP100-4D] (HELM PEPTIDE1{R.R.L.[dF].R.R.I.L.R.W.L.[am]}$$$$V2.0)", "values": [{"measurement": "MICs against the selected Gram-negative bacterial isolates", "setting": "various microorganisms; E. coli, Salmonella enterica, K. pneumoniae, C. jejuni, A. baumannii, Pseudomonas spp., S. putrefaction, range over strains", "result": "3 to 25", "unit": "µg/mL"}, {"measurement": "MIC against S. aureus ATCC29213 and E. coli ATCC25922 (both strains together)", "setting": "various microorganisms; summary of Table 1", "result": "3 to 12", "unit": "µg/mL"}, {"measurement": "MIC Staphylococcus aureus ATCC29213", "setting": "[1]; [12]", "result": 3, "unit": "µg/mL"}, {"measurement": "MIC of peptides", "setting": "[1]; Table 2, Staphylococcus aureus ATCC29213, mean of three repeated experiments", "result": "6 µg/mL and 3 µg/mL"}, {"measurement": "MIC of RW-BP100-4D against C. albicans ATCC10231 after 40-80 ℃", "setting": "C. albicans ATCC10231; 100 μg/mL peptide in PBS, pH 7, 40-80 ℃, then broth microdilution", "result": 12, "unit": "µg/mL"}, {"measurement": "MIC of RW-BP100-4D against C. albicans ATCC10231 after 90 ℃", "setting": "C. albicans ATCC10231; 100 μg/mL peptide in PBS, pH 7, 90 ℃", "result": 25, "unit": "µg/mL"}, {"measurement": "MIC of RW-BP100-4D against C. albicans ATCC10231 after 100 ℃", "setting": "C. albicans ATCC10231; 100 μg/mL peptide in PBS, pH 7, 100 ℃", "result": 50, "unit": "µg/mL"}, {"measurement": "MIC of RW-BP100-4D against C. albicans ATCC10231 after papain", "setting": "C. albicans ATCC10231; 100 μg/mL peptide with papain 1 mg/mL, 37°C, protease inactivated 80°C 30 min", "result": ">50", "unit": "µg/mL"}, {"measurement": "MIC of RW-BP100-4D against C. albicans ATCC10231 after calf serum", "setting": "C. albicans ATCC10231; 100 μg/mL peptide with sterile calf serum, 37°C, serum inactivated 80°C 30 min", "result": ">50", "unit": "µg/mL"}, {"measurement": "MIC of RW-BP100-4D against C. albicans ATCC10231 after trypsin", "setting": "C. albicans ATCC10231; 100 μg/mL peptide with trypsin 1 mg/mL, 37°C, protease inactivated 80°C 30 min", "result": ">50", "unit": "µg/mL"}, {"measurement": "MIC of RW-BP100-4D against C. albicans ATCC10231 after pH 2-7", "setting": "C. albicans ATCC10231; 100 μg/mL peptide, pH 2-7, 37°C, then adjusted to pH 7.0", "result": 12, "unit": "µg/mL"}, {"measurement": "MIC of RW-BP100-4D against C. albicans ATCC10231 after pH 8-9", "setting": "C. albicans ATCC10231; 100 μg/mL peptide, pH 8-9, 37°C, then adjusted to pH 7.0", "result": 25, "unit": "µg/mL"}, {"measurement": "Cell survival rate, RAW264.7", "setting": "RAW264.7 cells", "result": "78.02 ± 7.66", "unit": "%"}, {"measurement": "MBC of peptides", "setting": "Escherichia coli XG-E1", "result": 6, "unit": "µg/mL"}, {"measurement": "MIC of peptides", "setting": "Escherichia coli XG-E1", "result": 3, "unit": "µg/mL"}, {"measurement": "MBC of peptides", "setting": "[2]", "result": 6, "unit": "µg/mL"}, {"measurement": "MIC of peptides", "setting": "[2]", "result": 3, "unit": "µg/mL"}, {"measurement": "MBC of peptides", "setting": "Enterococcus faecalis 32", "result": 50, "unit": "µg/mL"}, {"measurement": "MIC of peptides", "setting": "Enterococcus faecalis 32", "result": 12, "unit": "µg/mL"}, {"measurement": "MBC of peptides", "setting": "[3]", "result": 6, "unit": "µg/mL"}, {"measurement": "MIC of peptides", "setting": "[3]", "result": 3, "unit": "µg/mL"}, {"measurement": "MBC of peptides", "setting": "[4]", "result": 50, "unit": "µg/mL"}, {"measurement": "MIC of peptides", "setting": "[4]", "result": 12, "unit": "µg/mL"}, {"measurement": "MBC of peptides", "setting": "[5]", "result": 12, "unit": "µg/mL"}, {"measurement": "MIC of peptides", "setting": "[5]", "result": 6, "unit": "µg/mL"}, {"measurement": "MBC of peptides", "setting": "[6]", "result": 6, "unit": "µg/mL"}, {"measurement": "MIC of peptides", "setting": "[6]", "result": 3, "unit": "µg/mL"}, {"measurement": "MBC of peptides", "setting": "Escherichia coli 47EC", "result": 12, "unit": "µg/mL"}, {"measurement": "MIC of peptides", "setting": "Escherichia coli 47EC", "result": "3 µg/mL and 6 µg/mL"}, {"measurement": "MIC of peptides", "setting": "[7]; [13]", "result": 12, "unit": "µg/mL"}, {"measurement": "MBC of peptides", "setting": "[7]; [14]", "result": 25, "unit": "µg/mL"}, {"measurement": "metabolised at 1 h, 100 μg/mL", "setting": "trypsin", "result": "> 90", "unit": "%"}, {"measurement": "MBC of peptides", "setting": "[8]; Escherichia coli ACTT25922, mean of three repeated experiments", "result": 12, "unit": "µg/mL"}, {"measurement": "MIC Escherichia coli ATCC25922", "setting": "[8]; [12]", "result": 6, "unit": "µg/mL"}, {"measurement": "MIC of peptides", "setting": "[8]; Table 2, Escherichia coli ACTT25922, mean of three repeated experiments", "result": 6, "unit": "µg/mL"}, {"measurement": "MICs after treatment with proteinase K, fold of the original level", "setting": "[9]", "result": "4–8 fold"}, {"measurement": "Degradation, 40-80 ℃", "setting": "[10]; pH 7, 40-80 ℃, decrease of HPLC peak area (C8, UV 220 nm) of native peptide", "result": 0, "unit": "%"}, {"measurement": "Degradation, 90 ℃", "setting": "[10]; pH 7, 90 ℃, decrease of HPLC peak area (C8, UV 220 nm)", "result": 56, "unit": "%"}, {"measurement": "Degradation, 100 ℃", "setting": "[10]; pH 7, 100 ℃, decrease of HPLC peak area (C8, UV 220 nm)", "result": 82, "unit": "%"}, {"measurement": "MIC of peptides", "setting": "Fusarium oxysporum LD21; [13]", "result": 12, "unit": "µg/mL"}, {"measurement": "MBC of peptides", "setting": "Fusarium oxysporum LD21; [14]", "result": 25, "unit": "µg/mL"}, {"measurement": "metabolised at 1 h, 100 μg/mL", "setting": "in vitro", "result": "> 90", "unit": "%"}, {"measurement": "Biofilm inhibited compared with the PBS control", "setting": "[11]", "result": 82.3, "unit": "%"}]}]}
